Test results as given in ChEMBL document CHEMBL1144199, “Design, synthesis, and biological evaluation of new mitonafide derivatives as potential antitumor drugs” (Bioorg Med Chem, 2008).
pIC50: −log10 of the molar value.

Experiments:
[1] = test system: DNA; test: Displacement of ethidium bromide from calf thymus DNA assessed as ratio of concentration of ethidium in ethidium DNA complex to drug concentration by fluorometric assay; assay type: nucleic-acid assay; settings: Bos taurus
[2] = test system: HT-29; test: Cytotoxicity against human HT-29 cells after 144 hrs; assay type: functional, cell-based; settings: HT-29, 144 h

Structure (SMILES)	Kapp [1]	pIC50 [2]
CN(C)CCNC(=O)c1cccc2c(=O)c3ccccc3[nH]c12		5.77
NCCNc1c([N+](=O)[O-])cc2c3c(cccc13)C(=O)N(CCN)C2=O	5.3 ×10⁷ /M	6.07
CN(C)CCCNc1ccc2c3c(cccc13)C(=O)N(CCCN(C)CCCN1C(=O)c3cccc4c(NCCCN(C)C)ccc(c34)C1=O)C2=O	1.1 ×10⁸ /M	7.00
CN(C)CCN1C(=O)c2cccc3cc([N+](=O)[O-])cc(c23)C1=O [MITONAFIDE]	3.4 ×10⁶ /M	6.66
CN(C)CCNC(=O)c1ccc(NCCN(C)C)c2c(=O)c3ccccc3[nH]c12		7.36
CN(C)CCNc1ccc2c3c(cccc13)C(=O)N(CCCN(C)CCCN1C(=O)c3cccc4c(NCCN(C)C)ccc(c34)C1=O)C2=O	2.3 ×10⁸ /M	7.22
CN(C)CCNc1c([N+](=O)[O-])cc2c3c(cccc13)C(=O)N(CCN(C)C)C2=O	7.7 ×10⁷ /M	6.92

Further lines, with some results ahead:

Kapp [1]	Structure (SMILES)	pIC50 [2]
3.9 ×10⁷ /M	CN(C)CCCNc1c(N)cc2c3c(cccc13)C(=O)N(CCCN(C)C)C2=O	4.77
2.3 ×10⁷ /M	CCN(CC)CCNc1ccc2c3c(cccc13)C(=O)N(CCN(C)C)C2=O	5.68
1.3 ×10⁷ /M	CN(C)CCCNc1ccc2c3c(cccc13)C(=O)N(CCCN(C)C)C2=O	5.85
1.9 ×10⁷ /M	CN(C)CCCNc1ccc2c3c(cccc13)C(=O)N(CCN(C)C)C2=O	6.03
4.5 ×10⁷ /M	CN(C)CCNc1c(N)cc2c3c(cccc13)C(=O)N(CCN(C)C)C2=O	6.09
2.3 ×10⁷ /M	CN(C)CCNc1ccc2c3c(cccc13)C(=O)N(CCN(C)C)C2=O	6.80
1.9 ×10⁷ /M	CCN(CC)CCCNc1ccc2c3c(cccc13)C(=O)N(CCN(C)C)C2=O	6.05
1.5 ×10⁷ /M	CN(C)CCCN1C(=O)c2cccc3c(NCCN(C)C)ccc(c23)C1=O	5.77
2.4 ×10⁷ /M	CN(C)CCN1C(=O)c2cccc3c(NCCNCCO)ccc(c23)C1=O	6.11
7 ×10⁷ /M	CN(C)CCCNc1c([N+](=O)[O-])cc2c3c(cccc13)C(=O)N(CCCN(C)C)C2=O	6.85
